Measurements as given in patent US20260274892A1, “MACROCYCLIC BROAD SPECTRUM ANTIBIOTICS” (RQx Pharmaceuticals, Inc., priority 2017, published 2026).

Key:
[1] = test system: Methicillin Resistant Staphylococcus aureus strain USA 200; assay: Minimum inhibitory concentration (MIC), CLSI broth micro-dilution, S. aureus; format: cell-based; conditions: Staphylococcus aureus, MRSA / USA200; Table 6; MRSA USA 200; cation adjusted Mueller Hinton Broth + 0.002% Tween-80; 35° C., 22 hours
How it was run: (§1)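 Antibacterial potency is measured as MIC by the CLSI broth dilution method. Bacteria at OD600 0.0005 in Tween-80-supplemented cation-adjusted Mueller Hinton broth face ten twofold compound dilutions for 22 h at 35° C.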

[2] = test system: Escherichia coli ATCC 25922; assay: Minimum inhibitory concentration (MIC), CLSI broth micro-dilution, E. coli; format: cell-based; conditions: Escherichia coli, ATCC25922, 22 h, Table 6, cation adjusted Mueller Hinton Broth + 0.002% Tween-80, 35° C.
How it was run: as §1

SMILES | MIC [1] [µM] | MIC [2] [µM]
CCCCCOc1ccc(-c2nc(C)c(C(=O)N[C@@H](CCN)C(=O)N(C)[C@@H]3C(=O)N[C@@H](C)C(=O)N[C@H](C(=O)NCC#N)Cc4ccc(OCCN)c(c4)-c4cc3ccc4O)c(C)n2)cc1 (racemic) [Compound 536, rac-(8S,11S,14S)-3-(2-aminoethoxy)-N-(cyanomethyl)-18-hydroxy-11-methyl-14-[methyl-[rac-(2S)-4-amino-2-[[4,6-dimethyl-2-(4-pentoxyphenyl)pyrimidine-5-carbonyl]amino]butanoyl]amino]-10,13-dioxo-9,12-diazatricyclo[13.3.1.12,6]icosa-1(18),2(20),3,5,15(19),16-hexaene-8-carboxamide] | 0.016 | 0.13
CCCCC1(c2ccc(-c3nc(C)c(C(=O)N[C@@H](CCN)C(=O)N(C)[C@@H]4C(=O)N[C@@H](C)C(=O)N[C@H](C(=O)NCC#N)Cc5ccc(OCCN)c(c5)-c5cc4ccc5OCCN)c(C)n3)cc2)CC1 (racemic) [Compound 283, rac-(8S,11S,14S)-3,18-bis(2-aminoethoxy)-N-(cyanomethyl)-11-methyl-14-[methyl-[rac-(2S)-4-amino-2-[[2-[4-(1-butylcyclopropyl)phenyl]-4,6-dimethyl-pyrimidine-5-carbonyl]amino]butanoyl]amino]-10,13-dioxo-9,12-diazatricyclo[13.3.1.12,6]icosa-1(18),2(20),3,5,15(19),16-hexaene-8-carboxamide] | 0.012 | 0.094
CCCCCOc1ccc(-c2nc(C)c(C(=O)N[C@@H](CCN)C(=O)N(C)[C@@H]3C(=O)N[C@@H](C)C(=O)N[C@H](C(=O)NCC#N)Cc4ccc(OCCN)c(c4)-c4cc3ccc4OCCN)c(C)n2)cc1 (racemic) [Compound 328, rac-(8S,11S,14S)-3,18-bis(2-aminoethoxy)-N-(cyanomethyl)-11-methyl-14-[methyl-[rac-(2S)-4-amino-2-[[4,6-dimethyl-2-(4-pentoxyphenyl)pyrimidine-5-carbonyl]amino]butanoyl]amino]-10,13-dioxo-9,12-diazatricyclo[13.3.1.12,6]icosa-1(18),2(20),3,5,15(19),16-hexaene-8-carboxamide] | 0.0093 | 0.07
Cc1nc(-c2ccc3c(c2)CCCC3)nc(C)c1C(=O)N[C@@H](CCN)C(=O)N(C)[C@@H]1C(=O)N[C@@H](C)C(=O)N[C@H](C(=O)NCC#N)Cc2ccc(OCCN)c(c2)-c2cc1ccc2OCCN (racemic) [Compound 259, rac-(8S,11S,14S)-3,18-bis(2-aminoethoxy)-N-(cyanomethyl)-11-methyl-14-[methyl-[rac-(2S)-4-amino-2-[(4,6-dimethyl-2-tetralin-6-yl-pyrimidine-5-carbonyl)amino]butanoyl]amino]-10,13-dioxo-9,12-diazatricyclo[13.3.1.12,6]icosa-1(18),2(20),3,5,15(19),16-hexaene-8-carboxamide] | 0.025 | 0.26
CCC(CC)Oc1ccc(-c2nc(C)c(C(=O)N[C@@H](CCN)C(=O)N(C)[C@@H]3C(=O)N[C@@H](C)C(=O)N[C@H](C(=O)NCC#N)Cc4ccc(OCCN)c(c4)-c4cc3ccc4OCCN)c(C)n2)cc1 (racemic) [Compound 339, rac-(8S,11S,14S)-3,18-bis(2-aminoethoxy)-N-(cyanomethyl)-11-methyl-14-[methyl-[rac-(2S)-4-amino-2-[[2-[4-(1-ethylpropoxy)phenyl]-4,6-dimethyl-pyrimidine-5-carbonyl]amino]butanoyl]amino]-10,13-dioxo-9,12-diazatricyclo[13.3.1.12,6]icosa-1(18),2(20),3,5,15(19),16-hexaene-8-carboxamide] | 0.047 | 0.25
CCCCCc1ccc(-c2ccc(C(=O)N[C@@H](CCN)C(=O)N(C)[C@@H]3C(=O)N[C@@H](C)C(=O)N[C@H](C(=O)NCC#N)Cc4ccc(OCCN)c(c4)-c4cc3ccc4OCCN)c(C)n2)cc1 (racemic) [Compound 205, rac-(8S,11S,14S)-3,18-bis(2-aminoethoxy)-N-(cyanomethyl)-11-methyl-14-[methyl-[rac-(2S)-4-amino-2-[[2-methyl-6-(4-pentylphenyl)pyridine-3-carbonyl]amino]butanoyl]amino]-10,13-dioxo-9,12-diazatricyclo[13.3.1.12,6]icosa-1(18),2(20),3,5,15(19),16-hexaene-8-carboxamide] | 0.012 | 0.066

Now from value to compound:

MIC [1] [µM] | MIC [2] [µM] | SMILES
0.19 | 0.75 | CC(=O)NCCOc1ccc2cc1-c1cc(ccc1OCCN)[C@H](N(C)C(=O)[C@H](CCN)NC(=O)c1c(C)nc(-c3ccc(C(C)(C)C)cc3)nc1C)C(=O)N[C@@H](C)C(=O)N[C@H](C(=O)NCC#N)C2 (racemic) [Compound 517, rac-(8S,11S,14S)-3-(2-acetamidoethoxy)-18-(2-aminoethoxy)-N-(cyanomethyl)-11-methyl-14-[methyl-[rac-(2S)-4-amino-2-[[2-(4-tert-butylphenyl)-4,6-dimethyl-pyrimidine-5-carbonyl]amino]butanoyl]amino]-10,13-dioxo-9,12-diazatricyclo[13.3.1.12,6]icosa-1(18),2(20),3,5,15(19),16-hexaene-8-carboxamide]
0.13 | 4.1 | CCCCCCCCc1ccc(C(=O)N[C@@H](CCC(=O)NCC)C(=O)N(C)[C@@H]2C(=O)N[C@@H](C)C(=O)N[C@H](C(=O)NCC#N)Cc3ccc(OCCN)c(c3)-c3cc2ccc3OCCN)c(C)c1 (racemic) [Compound 445, rac-(2S)-N′-ethyl-N-methyl-2-[(2-methyl-4-octyl-benzoyl)amino]-N-[rac-(7S,10S,13S)-3,18-bis(2-aminoethoxy)-13-(cyanomethylcarbamoyl)-10-methyl-8,11-dioxo-9,12-diazatricyclo[13.3.1.12,6]icosa-1(19),2,4,6(20),15,17-hexaen-7-yl]pentanediamide]
0.0078 | 0.5 | CCCCCCc1ccc2nc(C)c(C(=O)N[C@@H](CCN)C(=O)N(C)[C@@H]3C(=O)N[C@@H](C)C(=O)N[C@H](C(=O)NCC#N)Cc4ccc(OCCN)c(c4)-c4cc3ccc4OCCN)c(C)c2c1 (racemic) [Compound 399, rac-(8S,11S,14S)-3,18-bis(2-aminoethoxy)-N-(cyanomethyl)-11-methyl-14-[methyl-[rac-(2S)-4-amino-2-[(6-hexyl-2,4-dimethyl-quinoline-3-carbonyl)amino]butanoyl]amino]-10,13-dioxo-9,12-diazatricyclo[13.3.1.12,6]icosa-1(18),2(20),3,5,15(19),16-hexaene-8-carboxamide]
0.016 | 0.13 | CCCCc1ccc(-c2cc(C)c(C(=O)N[C@@H](CCN)C(=O)N(C)[C@@H]3C(=O)N[C@@H](C)C(=O)N[C@H](C(=O)NCC#N)Cc4ccc(OCCN)c(c4)-c4cc3ccc4OCCN)c(C)n2)cc1 (racemic) [Compound 366, rac-(8S,11S,14S)-3,18-bis(2-aminoethoxy)-N-(cyanomethyl)-11-methyl-14-[methyl-[rac-(2S)-4-amino-2-[[6-(4-butylphenyl)-2,4-dimethyl-pyridine-3-carbonyl]amino]butanoyl]amino]-10,13-dioxo-9,12-diazatricyclo[13.3.1.12,6]icosa-1(18),2(20),3,5,15(19),16-hexaene-8-carboxamide]
0.031 | 0.19 | C[C@@H]1NC(=O)[C@@H](N(C)C(=O)[C@H](CCN)NC(=O)c2ccc(-c3ccc(C(C)(C)C)cc3)cc2Cl)c2ccc(OCCN)c(c2)-c2cc(ccc2OCCN)C[C@@H](C(=O)NCC#N)NC1=O (racemic) [Compound 371, rac-(8S,11S,14S)-3,18-bis(2-aminoethoxy)-N-(cyanomethyl)-11-methyl-14-[methyl-[rac-(2S)-4-amino-2-[[4-(4-tert-butylphenyl)-2-chloro-benzoyl]amino]butanoyl]amino]-10,13-dioxo-9,12-diazatricyclo[13.3.1.12,6]icosa-1(18),2(20),3,5,15(19),16-hexaene-8-carboxamide]
0.033 | 1.1 | Cc1nc(-c2ccc(CC(C)C)cc2)ncc1C(=O)N[C@@H](CCO)C(=O)N(C)[C@@H]1C(=O)N[C@@H](C)C(=O)N[C@H](C(=O)NCC#N)Cc2ccc(OCCN)c(c2)-c2cc1ccc2OCCN (racemic) [Compound 458, rac-(8S,11S,14S)-3,18-bis(2-aminoethoxy)-N-(cyanomethyl)-11-methyl-14-[methyl-[rac-(2S)-4-hydroxy-2-[[2-(4-isobutylphenyl)-4-methyl-pyrimidine-5-carbonyl]amino]butanoyl]amino]-10,13-dioxo-9,12-diazatricyclo[13.3.1.12,6]icosa-1(18),2(20),3,5,15(19),16-hexaene-8-carboxamide]
0.025 | 1.1 | Cc1nc(-c2ccc(C(C)(C)C)cc2)ncc1C(=O)N[C@@H](CCN)C(=O)N(C)[C@@H]1C(=O)NCC(=O)N[C@H](C(=O)NCC#N)Cc2ccc(OCCN)c(c2)-c2cc1ccc2OCCN (racemic) [Compound 476, rac-(8S,14S)-3,18-bis(2-aminoethoxy)-N-(cyanomethyl)-14-[methyl-[rac-(2S)-4-amino-2-[[2-(4-tert-butylphenyl)-4-methyl-pyrimidine-5-carbonyl]amino]butanoyl]amino]-10,13-dioxo-9,12-diazatricyclo[13.3.1.12,6]icosa-1(18),2(20),3,5,15(19),16-hexaene-8-carboxamide]
0.047 | 0.76 | CCCCCc1ccc(-c2ncc(C(=O)N[C@@H](CCNC(N)=O)C(=O)N(C)[C@@H]3C(=O)N[C@@H](C)C(=O)N[C@H](C(=O)NCC#N)Cc4ccc(OCCN)c(c4)-c4cc3ccc4OCCN)c(C)n2)cc1 (racemic) [Compound 451, rac-(8S,11S,14S)-3,18-bis(2-aminoethoxy)-N-(cyanomethyl)-11-methyl-14-[methyl-[rac-(2S)-2-[[4-methyl-2-(4-pentylphenyl)pyrimidine-5-carbonyl]amino]-4-ureido-butanoyl]amino]-10,13-dioxo-9,12-diazatricyclo[13.3.1.12,6]icosa-1(18),2(20),3,5,15(19),16-hexaene-8-carboxamide]
